Laboratory results reported in patent US11117932B2, “Peptides for specific inhibition of Jag 1-Notch 1 pathway” (The Hong Kong Polytechnic University, priority 2018, dated 2021).
Read-outs that look alike come from different tables or passages of the source. Residues, ends and D or L forms follow the SMILES beside them. No end group written: not given here.

How the values were obtained:
[1] = system: S1-M1-80 cells; assay: cells; type: cell-based, human
Experimental: (§1) HCT-116, HCT-15, S1-M1-80, S1, L929, HEK293T-Jagged-1 were seeded in each well of a 96-well plate with a series of concentrations (a serial dilution from 1000μM to 0.5 μM) of peptides or drugs including DAPT, Topotecan at 37° C. with 5% CO2 in a humidified incubator for 3 days. Percentage of survival was determined by MTS assay as described.

[2] = in vitro; type: cell-based; details: mouse
Experimental: as §1

[3] = system: HEK-293T-Jagged-1 cells; type: cell-based, human
Experimental: as §1

[4] = system: S1; assay: cells; type: cell-based, human
Experimental: as §1

[5] = system: Jag1-Notch1 signalling; assay: Co-culture Notch luciferase reporter assay, Jag1-induced; type: cell-based, human; details: peptides 25 μM
Experimental: Jag1-Notch interaction is measured using a co-culture assay with one cell line expressing the Notch ligand Jagged1 (Jag1) and a second expressing Notch (either Notch1 or Notch2). A firefly luciferase reporter plasmid with 12 upstream CBF-1 binding site was transfected into signalling-receiving cells to report on Notch signalling (FIG. 1D). Peptides were tested for their activity in inhibiting Jag1-induced Notch signalling. Complete inhibition is equivalent to the background signal seen without induction (−Jag1). […] N1 (SEQ ID NO: 10) is a 15-mer derived from the EGF-like repeat 12 of Notch1 (C467-G481). This is consistent with the structural information that EGF-like repeat 12 of Notch1 is near the MNNL domain of Jag1 (FIGS. 1B and C).
Specificity of N1 (SEQ ID NO: 10) peptide in inhibiting different Notch ligand-induced Notch signaling was investigated using in vitro co-culture assay. HEK293T or CHO cells expressing Notch ligand (either Jag1, DLL1 or DLL4) are co-cultured with Notch1- or Notch2-expressing cells. Notch1 and Notch2 signalling can be measured by either luciferase reporter assay or by the formation of NICD1 and NICD2. […] Half inhibition is reached at between 50 to 100 μM. […] This contrasts with DAPT which affects all the above interactions.
HEK-293T-Jagged-1 cells were seeded in 24-well plates in triplicate per sample group, and human HCT-116 cells were seeded in one 60 mm dish. Cells were allowed to settle, and were transfected the following day after the medium was changed to be antibiotic free. HCT-116 cells were transfected with 12×CSL-Luc and Renilla-Luc, using Lipofectamine® 3000 (Invitrogen™), according to the manufacturer's instructions. After 24 hours, HCT-116 cells were scraped and 2.5×10^4 cells in 1 mL complete medium per well were added to both 24-well plates. Peptides were treated to cells with the desired concentrations. N—[N-(3,5-difluorophenacetyl)-L-alanyl]-S-phenylglycine t-butyl ester (DAPT) was used as positive control. Cells were co-cultured for 12 hours before measure the luciferase activity. After incubation, cells were lysed with luciferase lysis buffer. Notch activity in cells expressing the 12×CSL-Luc reporter construct was measured by a luciferase assay using Dual-Luciferase® Reporter Assay System (Promega).

[6] = system: S1-M1-80 cells; assay: Clonogenicity assay, S1-M1-80; type: cell-based, human; details: S1-M1-80, single agent 1 μM
Experimental: The procedure for colony formation assay consists of following steps. An appropriate number of cells per well were seeded on a 6-well plate in duplicate. The number of cells for seeding should be related to the aggressiveness of the treatment. The cells were incubated for 12 hours in a CO2 incubator at 37° C. and allow cells to attach to the plate. The cells were treated with peptides or (DAPT) to required concentrations. The cells were incubated in a in a CO2 incubator at 37° C. for about 10 days until cells in control well have formed colonies which are of a substantially good size (the minimum score is 100 cells per colony). After the incubation, the medium was removed and cells were rinsed with 5 ml 1×PBS (phosphate buffered saline. pH 7.2). The cells were then fixed with 1 ml methanol at room temperature for 10 min. After fixation, the cells were stained with 0.5% crystal violet solution and incubated at room temperature for 1 h. After staining, the plates were immersed in deionized water to rinse off crystal violet and air-dried at room temperature for overnight. The dry plates were pictured with scanner. The number of colonies in each well was counted by cell counter software.

Row | Compound | IC50 [1] [µM] | IC50 [4] [µM] | other results
1 | CC[C@H](C)[C@H](NC(=O)[C@H](CCC(N)=O)NC(=O)[C@H](CC(=O)O)NC(=O)[C@H](CC(C)C)NC(=O)[C@H](CS)NC(=O)[C@@H](N)Cc1ccccc1)C(=O)NCC(=O)N[C@@H](CCC(=O)O)C(=O)N[C@@H](Cc1ccccc1)C(=O)N[C@@H](CCC(N)=O)C(=O)N[C@@H](CS)C(=O)N[C@H](C(=O)N[C@@H](CS)C(=O)N[C@@H](CCC(=O)O)C(=O)O)[C@@H](C)CC [N102T466F-M479E, FCLDQIGEFQCICE] (H-FCLDQIGEFQCICE-OH; N-terminus and C-terminus assumed) | 43.9 ± 3.4 |  | IC50 at 3 days [2]: > 100 µM; IC50 [3]: > 100 µM
2 | CC[C@H](C)[C@H](N)C(=O)N[C@@H](CS)C(=O)N[C@@H](CC(C)C)C(=O)N[C@@H](CC(=O)O)C(=O)N[C@@H](CCC(N)=O)C(=O)N[C@H](C(=O)NCC(=O)N[C@@H](CCC(=O)O)C(=O)N[C@@H](Cc1ccccc1)C(=O)N[C@@H](CCC(N)=O)C(=O)N[C@@H](CS)C(=O)N[C@H](C(=O)N[C@@H](CS)C(=O)N[C@@H](CCC(=O)O)C(=O)O)[C@@H](C)CC)[C@@H](C)CC [N102T466I-M479E, ICLDQIGEFQCICE] (H-ICLDQIGEFQCICE-OH; N-terminus and C-terminus assumed) | 15.2 ± 4.2 |  | IC50 at 3 days [2]: > 100 µM; IC50 [3]: > 100 µM
3 | CC[C@H](C)[C@H](NC(=O)[C@H](CCC(N)=O)NC(=O)[C@H](CC(=O)O)NC(=O)[C@H](CC(C)C)NC(=O)[C@H](CS)NC(=O)[C@@H](N)CC(C)C)C(=O)NCC(=O)N[C@@H](CCC(=O)O)C(=O)N[C@@H](Cc1ccccc1)C(=O)N[C@@H](CCC(N)=O)C(=O)N[C@@H](CS)C(=O)N[C@H](C(=O)N[C@@H](CS)C(=O)N[C@@H](CCC(=O)O)C(=O)O)[C@@H](C)CC [N102T466L-M479E, LCLDQIGEFQCICE] (H-LCLDQIGEFQCICE-OH; N-terminus and C-terminus assumed) | 5.4 ± 1.2 |  | IC50 at 3 days [2]: > 100 µM; IC50 [3]: > 100 µM
4 | CC[C@H](C)[C@H](NC(=O)[C@H](CCC(N)=O)NC(=O)[C@H](CC(=O)O)NC(=O)[C@H](CC(C)C)NC(=O)[C@H](CS)NC(=O)[C@@H](N)Cc1c[nH]c2ccccc12)C(=O)NCC(=O)N[C@@H](CCC(=O)O)C(=O)N[C@@H](Cc1ccccc1)C(=O)N[C@@H](CCC(N)=O)C(=O)N[C@@H](CS)C(=O)N[C@H](C(=O)N[C@@H](CS)C(=O)N[C@@H](CCC(=O)O)C(=O)O)[C@@H](C)CC [N102T466W-M479E, WCLDQIGEFQCICE] (H-WCLDQIGEFQCICE-OH; N-terminus and C-terminus assumed) | 54.3 ± 5.2 |  | IC50 at 3 days [2]: > 100 µM; IC50 [3]: > 100 µM
5 | CC[C@H](C)[C@H](NC(=O)[C@H](CCC(N)=O)NC(=O)[C@H](CC(=O)O)NC(=O)[C@H](CC(C)C)NC(=O)[C@@H](N)CS)C(=O)NCC(=O)N[C@@H](CCC(=O)O)C(=O)N[C@@H](Cc1ccccc1)C(=O)N[C@@H](CCC(N)=O)C(=O)N[C@@H](CS)C(=O)N[C@H](C(=O)N[C@@H](CS)C(=O)N[C@@H](CCSC)C(=O)N1CCC[C@H]1C(=O)O)[C@@H](C)CC [Peptide N101, CLDQIGEFQCICMP] (H-CLDQIGEFQCICMP-OH; N-terminus and C-terminus assumed) | 14.1 ± 0.7 | > 50 | 
6 | CC[C@H](C)[C@H](NC(=O)[C@H](CCC(N)=O)NC(=O)[C@H](CC(=O)O)NC(=O)[C@H](CC(C)C)NC(=O)[C@@H](N)CS)C(=O)NCC(=O)N[C@@H](CCC(=O)O)C(=O)N[C@@H](Cc1ccccc1)C(=O)N[C@@H](CCC(N)=O)C(=O)N[C@@H](CS)C(=O)N[C@H](C(=O)N[C@@H](CS)C(=O)N[C@@H](CCSC)C(=O)O)[C@@H](C)CC [Peptide N102, CLDQIGEFQCICM] (H-CLDQIGEFQCICM-OH; N-terminus and C-terminus assumed) | 10.2 ± 0.4 | > 50 | inhibition of Jag1-induced Notch signaling compared with N1 [5]: stronger inhibitory effect than N1
7 | CC[C@H](C)[C@H](NC(=O)[C@H](CS)NC(=O)[C@H](CCC(N)=O)NC(=O)[C@H](Cc1ccccc1)NC(=O)[C@H](CCC(=O)O)NC(=O)CNC(=O)[C@H](Cc1c[nH]c2ccccc12)NC(=O)[C@H](CCC(N)=O)NC(=O)[C@H](CC(=O)O)NC(=O)[C@H](CC(C)C)NC(=O)[C@@H](N)CS)C(=O)N[C@@H](CS)C(=O)N[C@@H](CCSC)C(=O)O [Peptide N102I471W, CLDQWGEFQCICM] (H-CLDQWGEFQCICM-OH; N-terminus and C-terminus assumed) | > 50 | > 100 | inhibition of Jag1-induced Notch signaling compared with N1 [5]: slight improvement
8 | CC[C@H](C)[C@H](NC(=O)[C@H](CCC(N)=O)NC(=O)[C@H](CC(=O)O)NC(=O)[C@H](CC(C)C)NC(=O)[C@@H](N)CS)C(=O)NCC(=O)N[C@@H](CCC(=O)O)C(=O)N[C@@H](Cc1ccccc1)C(=O)N[C@@H](CCC(N)=O)C(=O)N[C@@H](CS)C(=O)N[C@H](C(=O)N[C@@H](CS)C(=O)O)[C@@H](C)CC [Peptide N103, CLDQIGEFQCIC] (H-CLDQIGEFQCIC-OH; N-terminus and C-terminus assumed) | > 50 | > 100 | 
9 | CC[C@H](C)[C@H](NC(=O)[C@H](CS)NC(=O)[C@H](CCC(N)=O)NC(=O)[C@H](Cc1ccccc1)NC(=O)[C@H](CCC(=O)O)NC(=O)CNC(=O)[C@@H](NC(=O)[C@H](CCC(N)=O)NC(=O)[C@H](CC(=O)O)NC(=O)[C@H](CC(C)C)NC(=O)[C@@H](N)CS)[C@@H](C)CC)C(=O)O [Peptide N104, CLDQIGEFQCI] (H-CLDQIGEFQCI-OH; N-terminus and C-terminus assumed) | 28.4 ± 0.6 | > 50 | inhibition of Jag1-induced Notch signaling compared with N1 [5]: stronger inhibitory effect than N1
10 | CC[C@H](C)[C@H](NC(=O)[C@H](CCC(N)=O)NC(=O)[C@H](CC(=O)O)NC(=O)[C@H](CC(C)C)NC(=O)[C@@H](N)CS)C(=O)NCC(=O)N[C@@H](CCC(=O)O)C(=O)N[C@@H](Cc1ccccc1)C(=O)N[C@@H](CCC(N)=O)C(=O)N[C@@H](CS)C(=O)O [Peptide N105, CLDQIGEFQC] (H-CLDQIGEFQC-OH; N-terminus and C-terminus assumed) | > 100 | > 100 | 
11 | CC(C)C[C@H](NC(=O)[C@@H](N)CS)C(=O)N[C@@H](CC(=O)O)C(=O)N[C@@H](CCC(N)=O)C(=O)O [Peptide N111, CLDQ] (H-CLDQ-OH; N-terminus and C-terminus assumed) | > 100 | > 100 | 
12 | CC[C@H](C)[C@H](N)C(=O)NCC(=O)N[C@@H](CCC(=O)O)C(=O)N[C@@H](Cc1ccccc1)C(=O)N[C@@H](CCC(N)=O)C(=O)N[C@@H](CS)C(=O)N[C@H](C(=O)N[C@@H](CS)C(=O)N[C@@H](CCSC)C(=O)N1CCC[C@H]1C(=O)NCC(=O)O)[C@@H](C)CC [Peptide N112, IGEFQCICMPG] (H-IGEFQCICMPG-OH; N-terminus and C-terminus assumed) | > 100 | > 100 | 
13 | CC[C@@]1(O)C(=O)OCc2c1cc1n(c2=O)Cc2cc3c(CN(C)C)c(O)ccc3nc2-1 [Topotecan, reference compound] |  |  | IC50 ([4]; Homo sapiens, 72 h, S1 cells, 3 days, MTS, read-out: IC50 (μM) S1): 0.19 ± 0.05 µM; IC50 ([1]; Homo sapiens, 72 h, S1-M1-80 cells, 3 days, MTS, read-out: IC50 (μM) s1-m1-80): 14.9 ± 0.1 µM; colony formation [6]: 1263 colonies/well
14 | CLDQIG [Peptide N109, CLDQIG] | > 100 | > 100 | 
15 | CLDQIGE [Peptide N108, CLDQIGE] | > 100 | > 100 | 
16 | CLDQIGEF [Peptide N107, CLDQIGEF] | > 100 | > 100 | 
17 | CLDQIGEFQ [Peptide N106, CLDQIGEFQ] | > 100 | > 100 | 
